Source: patent US6713511B1, “Fatty acid derivatives” (priority 1998, dated 2004)
Like-named read-outs stand apart in the source and are kept apart here.

Legend:
Format in all cases: in vivo, rat
[1] = tested on: rats challenged with Ro4-1284; experiment: Ro4-1284-induced blephrospasm model
From the text: This is an involuntary spasm of the orbicular muscles of the eye, causing forceful closure of the eyes. Symptomatically there is a significant increase in the rate of eyelid closures/min. This phenomenon is regarded as a type of dystonia, a decrease in the brain dopamine level being the etiology of this syndrome. Ro4-1284 is a powerful dopamine-depleting agent. In saline-treated animals, Ro4-1284 is able to induce an animal model of benign essential blephrospasm. Groups of rats similar to those described above were treated daily for 14 days with 25 mg/kg (II), i.p., and then were challenged with a dose of 40 mg/kg Ro4-1284, i.p. The results of this test were shown in the following Table.

[2] = tested on: rats with unilateral caudate nucleus (striatum) lesion; experiment: Rotational behavior in rats with unilateral striatum lesion, testing of (II)
Experimental: Three groups of 12 male Sprague-Dawley rats (Charles River Laboratories, Wilmington, Mass.) weighing 100-150 g, were housed 6 per cage in a well-ventilated and air-conditioned room of ambient temperature (22±2° C.) and relative humidity 45%. The rats had access to food (Big Red Laboratory Chow, Agway Inc., Syracuse, N.Y.) and water ad libitum. Light (“Vita Light”, Duro Test Corp., North Bergen, N.J.) was provided between 9 am and 9 pm. These groups were used for rotational study, the dosage of (II) being 100 mg/kg, i.p.
One group served as a control group (no treatment), a second group was a sham operated group, and a third group was the operated group. All surgery was performed under anesthesia (sodium pentobarbital, 50 mg/ml, as required). The rats were placed in a Kopf stereotaxic instrument (model #900). Unilateral anodal electrolytic lesions were made with constant current supply (lesion-producing device #58040, Stoelting, Chicago, Ill.). Current (2.0 mV for 10 seconds) was passed through stainless steel insulated wire pc 32, 0.008 inches diameter (“Formax”, Stoelting, Chicago, Ill.), bared only at the tip. The coordinates (modified from Konig and Klippel, 1963) for caudate nucleus lesion were: A 8.5, L 2.2, V+1.8. The lesions were made in the left side of the brain. Sham operated animals were treated as lesioned animals, i.e. they were placed in the stereotaxic instrument and an electrode was placed in the brain, but without passing electric current therethrough. After surgery, each rat was placed in an individual cage. Tests were made at day 10 after surgery. At the end of the experiment, each rat was given an overdose of pentobarbital and perfused with saline, followed by 10% formalin. Brains were removed and serial coronal slices were made at 40 micra, using a freezing microtome. Representative slides were stained with Cresyl Violet for verification of the lesion.
Details of the procedure with regard to determination of rotational behavior were substantially as described above for testing (I).

[3] = tested on: rats with unilateral caudate nucleus (striatum) lesion
From the text: One of the major behavioral methods to measure the increase in dopamine activity in the brain is rotational behavior. Dopamine is the neurotransmitter in the striatum. The striatum controls motor movements and motor integration. In the brain there are two striata, in the right and left hemispheres, respectively. Unilateral ablation of a striatum will result in walking in circles, as the intact striatum is still functioning; Ungerstadt, U. et al., Brain Res., 1970, 24: 485-492, created a lesion in one striatum and measured the effect on rotational behavior. Since then, this technique has been used to screen molecules, such as stimulants or potential anti-Parkinson drugs, which induce increase in dopaminergic activity.
Groups of 6 male Sprague-Dawley rats (Charles River Laboratories, Wilmington, Mass.) weighing 100-120 g, were housed 6 per cage in a well-ventilated and air-conditioned room of ambient temperature (22±2° C.) and relative humidity 45%. The rats had access to food (Big Red Laboratory Chow, Agway Inc., Syracuse, N.Y.) and water ad libitum. Light (“Vita Light”, Duro Test Corp., North Bergen, N.J.) was provided between 9 am and 9 pm.
All surgery was performed under anesthesia (sodium pentobarbital, 50 mg/ml, as required). The rats were placed in a Kopf stereotaxic instrument (model #900). Unilateral anodal electrolytic lesions were made with constant current supply (lesion-producing device #58040, Stoelting, Chicago, Ill.). Current (2.0 mV for 10 seconds) was passed through stainless steel insulated wire pe 32, 0.008 inches diameter (“Formax”, Stoelting, Chicago, Ill.), bared only at the tip. […]
Rotational behavior was tested in a rotameter, modified from the design of Ungerstedt et al., 1970. […] The potentiometer (preamplifier 8805 A) measured and recorded the changes in the amount of current which passed through it, resulting from the rotational movements of the rats. […]
Each rat was placed in the rotameter and treated with an i.p. injection of saline or (I) (10 mg/kg) as prepared above. […] The frequency of turning was measured between 30-40 minutes post-injection. […]

[4] = lesioned rats, 100 mg/kg i.p., day 10 after surgery

Question: How did the “rate of eyelid blinking/min.” value ([1]; Ro4-1284 40 mg/kg i.p. alone, 30 minutes after treatment with Ro4-1284) turn out when `CCC1(O)CC2c3cc(OC)c(OC)cc3CCN2CC1CC(C)C` (centres unmarked) [Ro4-1284, reference compound] was run?
Answer: The value was 19.08 ± 3.4 min⁻¹.

Question: `CC/C=C\C/C=C\C/C=C\CCCCCCCC(=O)N[C@@H](Cc1ccc(O)cc1)C(=O)OC` [(II), N-β-linolenyltyrosine Methyl Ester] was tested. Which “crossing of the blood-brain barrier” value ([2]; conclusion drawn from the behavioral testing) did it give?
Answer: The value was “cross the blood-brain barrier”.

Question: What about the “% L” value [2, 4] of the same compound?
Answer: Its value is 98%.

Question: And the “% R” value [2, 4]?
Answer: Its value is 2%.

Question: What about the “L (turns to the left)” value [2, 4] of the same compound?
Answer: The value was 98.

Question: And the “L + R” value [2, 4]?
Answer: The value was 100.

Question: What about the “R (turns to the right)” value [2, 4] of the same compound?
Answer: The value was 2.

Question: And the “rate of eyelid blinking/min.” value ([1]; 25 mg/kg (II) i.p. daily for 14 days, then Ro4-1284 40 mg/kg i.p., 30 minutes after Ro4-1284, p < 0.001)?
Answer: Its value is 5.00 ± 1.95 min⁻¹.

Question: For `CC/C=C\C/C=C\C/C=C\CCCCCCCC(=O)N[C@@H](Cc1ccc(O)cc1)C(=O)O` [(I), N-(α-linolenoyl)tyrosine], which “rate of rotational motion” value ([3]; lesioned rats, 10 mg/kg i.p., 30-40 minutes post-injection, day 4 after surgery, increased from 4 cycles/minute) is on record?
Answer: Its value is 40 cycles/minute.

Question: What about the “crossing of the blood-brain barrier” value ([3]; rat, in vivo) of the same compound?
Answer: Its value is “cross the blood-brain barrier”.

Question: What about the “abnormal behavior (stereotype)” value ([3]; rat, in vivo, ip, 10 mg/kg) of the same compound?
Answer: Its value is “not found”.
